From patent publication US11370763B2, “Compounds and compositions for treating conditions associated with NLRP activity” (Novartis AG, priority 2017, dated 2022)
Read-outs that look alike come from different tables or passages of the source.

Test system: IL-1β production in PMA-differentiated THP-1 cells
Experiment: IL-1β production in PMA-differentiated THP-1 cells stimulated with gramicidin (hTHP-1 assay containing 2% fetal bovine serum; Procedures 1-3)
Format: cell-based, human
Settings: read-out: hTHP-1 IC50 (Average IC50 of compounds in hTHP-1 assay)
Experimental: The following protocol is suitable for testing the activity of the compounds disclosed herein.
Procedure 1: IL-1β Production in PMA-Differentiated THP-1 Cells Stimulated with Gramicidin
THP-1 cells were purchased from the American Type Culture Collection and sub-cultured according to instructions from the supplier. Cells were cultured in complete RPMI 1640 (containing 10% heat inactivated FBS, penicillin (100 units/ml) and streptomycin (100 μg/ml)), and maintained in log phase prior to experimental setup. Prior to the experiment, compounds were dissolved in dimethyl sulfoxide (DMSO) to generate a 30 mM stock. The compound stock was first pre-diluted in DMSO to 3, 0.34, 0.042 and 0.0083 mM intermediate concentrations and subsequently spotted using Echo550 liquid handler into an empty 384-well assay plate to achieve desired final concentration (e.g. 100, 33, 11, 3.7, 1.2, 0.41, 0.14, 0.046, 0.015, 0.0051, 0.0017 μM). DMSO was backfilled in the plate to achieve a final DMSO assay concentration of 0.37%. The plate was then sealed and stored at room temperature until required.
THP-1 cells were treated with PMA (Phorbol 12-myristate 13-acetate) (20 ng/ml) for 16-18 hours. On the day of the experiment the media was removed and adherent cells were detached with trypsin for 5 minutes. Cells were then harvested, washed with complete RPMI 1640, spun down, and resuspended in RPMI 1640 (containing 2% heat inactivated FBS, penicillin (100 units/ml) and streptomycin (100 μg/ml). The cells were plated in the 384-well assay plate containing the spotted compounds at a density of 50,000 cells/well (final assay volume 50 μl). Cells were incubated with compounds for 1 hour and then stimulated with gramicidin (5 μM) (Enzo) for 2 hours. Plates were then centrifuged at 340 g for 5 min. Cell free supernatant (40 μL) was collected using a 96-channel PlateMaster (Gilson) and the production of IL-1β was evaluated by HTRF (cisbio). The plates were incubated for 18 h at 4° C. and read using the preset HTRF program (donor emission at 620 nm, acceptor emission at 668 nm) of the SpectraMax i3x spectrophotometer (Molecular Devices, software SoftMax 6). A vehicle only control and a dose titration of CRID3 (100-0.0017 μM) were run concurrently with each experiment.
Procedure 2: IL-1β Production in PMA-Differentiated THP-1 Cells Stimulated with Gramicidin
THP-1 cells were purchased from the American Type Culture Collection and sub-cultured according to instructions from the supplier. Prior to experiments, cells were cultured in complete RPMI 1640 (containing 10% heat inactivated FBS, penicillin (100 units/ml) and streptomycin (100 μg/ml)), and maintained in log phase prior to experimental setup. Prior to the experiment THP-1 were treated with PMA (Phorbol 12-myristate 13-acetate) (20 ng/ml) for 16-18 hours. Compounds were dissolved in dimethyl sulfoxide (DMSO) to generate a 30 mM stock. On the day of the experiment the media was removed and adherent cells were detached with trypsin for 5 minutes. Cells were then harvested, washed with complete RPMI 1640, spun down, resuspended in RPMI 1640 (containing 2% heat inactivated FBS, penicillin (100 units/ml) and streptomycin (100 μg/ml). The cells were plated in a 384-well plate at a density of 50,000 cells/well (final assay volume 50 μl). Compounds were first dissolved in assay medium to obtain a 5× top concentration of 500 μM. 10 step dilutions (1:3) were then undertaken in assay medium containing 1.67% DMSO. 5× compound solutions were added to the culture medium to achieve desired final concentration (e.g. 100, 33, 11, 3.7, 1.2, 0.41, 0.14, 0.046, 0.015, 0.0051, 0.0017 μM). Final DMSO concentration was at 0.37%. Cells were incubated with compounds for 1 hour and then stimulated with gramicidin (5 μM) (Enzo) for 2 hours. Plates were then centrifuged at 340 g for 5 min. Cell free supernatant (40 μL) was collected using a 96-channel PlateMaster (Gilson) and the production of IL-1β was evaluated by HTRF (cisbio). […]

[1] = Homo sapiens, THP-1, hTHP-1 assay containing 2% fetal bovine serum, class symbols
[2] = Homo sapiens, THP-1, hTHP-1 assay containing 2% fetal bovine serum, given as numeric bound
[3] = hTHP-1 assay containing 2% fetal bovine serum, class symbols

Compound	IC50 [1]	IC50 [2]	also measured
CC(C)c1ccc(F)c(C(C)C)c1CC(=O)N=S(N)(=O)c1ccc2c(cnn2C)c1 (single isomer, unassigned) [Example 198, (R) or (S)-N-(amino(1-methyl-1H-indazol-5-yl)(oxo)-λ^6-sulfaneylidene)-2-(3-fluoro-2,6-diisopropylphenyl)acetamide]	5 to 30 µM	–	–
CC(C)c1ccc(F)c(C(C)C)c1CC(=O)N=S(N)(=O)c1ccc2c(cnn2C)c1 (single isomer, unassigned) [Example 199, (S) or (R)-N-(amino(1-methyl-1H-indazol-5-yl)(oxo)-λ^6-sulfaneylidene)-2-(3-fluoro-2,6-diisopropylphenyl)acetamide]	–	> 30 µM	–
CC(C)c1ccc(F)c(C(C)C)c1CC(=O)N=S(N)(=O)c1ccc(CN(C)C)cn1 (single isomer, unassigned) [Example 200, (R) or (S)-N-(amino(5-((dimethylamino)methyl)pyridin-2-yl)(oxo)-λ^6-sulfaneylidene)-2-(3-fluoro-2,6-diisopropylphenyl)acetamide]	1 to 5 µM	–	–
CC(C)c1ccc(F)c(C(C)C)c1CC(=O)N=S(N)(=O)c1ccc(CN(C)C)cn1 (single isomer, unassigned) [Example 201, (S) or (R)-N-(amino(5-((dimethylamino)methyl)pyridin-2-yl)(oxo)-λ^6-sulfaneylidene)-2-(3-fluoro-2,6-diisopropylphenyl)acetamide]	–	> 30 µM	–
CC(C)c1nc(-c2cccc(C(F)(F)F)c2)c(F)c(C(C)C)c1CC(=O)N=S(N)(=O)c1cnc(C(C)(C)O)s1 (single isomer, unassigned) [Example 202, N-(amino(2-(2-hydroxypropan-2-yl)thiazol-5-yl)(oxo)-λ^6-sulfaneylidene)-2-(5-fluoro-2,4-diisopropyl-6-(3-(trifluoromethyl)phenyl)pyridin-3-yl)acetamide]	–	–	IC50 [3]: 0.2 to 1 µM
CC(C)c1ncc(F)c(C(C)C)c1CC(=O)N=S(N)(=O)c1ncc(C(C)(C)O)s1 (single isomer, unassigned) [Example 204, N-(amino(5-(2-hydroxypropan-2-yl)thiazol-2-yl)(oxo)-λ^6-sulfaneylidene)-2-(5-fluoro-2,4-diisopropylpyridin-3-yl)acetamide]	1 to 5 µM	–	–
CC(C)c1ncc(F)c(C(C)C)c1CC(=O)N=S(N)(=O)c1ncc(C(C)(C)O)s1 (single isomer, unassigned) [Example 205, (S) or (R)-N-(amino(5-(2-hydroxypropan-2-yl)thiazol-2-yl)(oxo)-λ^6-sulfaneylidene)-2-(5-fluoro-2,4-diisopropylpyridin-3-yl)acetamide]	–	> 30 µM	–
CC(C)c1ncc(F)c(C(C)C)c1CC(=O)N=S(N)(=O)c1nc(C(C)(C)O)cs1 (single isomer, unassigned) [Example 206, N-(amino(4-(2-hydroxypropan-2-yl)thiazol-2-yl)(oxo)-λ^6-sulfaneylidene)-2-(5-fluoro-2,4-diisopropylpyridin-3-yl)acetamide]	0.2 to 1 µM	–	–
CC(C)c1ncc(F)c(C(C)C)c1CC(=O)N=S(N)(=O)c1nc(C(C)(C)O)cs1 (single isomer, unassigned) [Example 207, (S) or (R)-N-(amino(4-(2-hydroxypropan-2-yl)thiazol-2-yl)(oxo)-λ^6-sulfaneylidene)-2-(5-fluoro-2,4-diisopropylpyridin-3-yl)acetamide]	–	> 30 µM	–
CC(C)c1ncc(F)c(C(C)C)c1CC(=O)N=S(N)(=O)c1sc(C(C)(C)O)cc1F (single isomer, unassigned) [Example 211, N-(amino(3-fluoro-5-(2-hydroxypropan-2-yl)thiophen-2-yl)(oxo)-λ^6-sulfaneylidene)-2-(5-fluoro-2,4-diisopropylpyridin-3-yl)acetamide]	–	–	IC50 [3]: 0.2 to 1 µM
CC(C)c1cc2c(c(C(C)C)c1CC(=O)N=S(N)(=O)c1cnc(C(C)(C)O)s1)CCC2 (single isomer, unassigned) [Example 212, (R) or (S)-N-(amino(2-(2-hydroxypropan-2-yl)thiazol-5-yl)(oxo)-λ^6-sulfaneylidene)-2-(4,6-diisopropyl-2,3-dihydro-1H-inden-5-yl)acetamide]	–	> 30 µM	–
CC(C)c1cc2c(c(C(C)C)c1CC(=O)N=S(N)(=O)c1cnc(C(C)(C)O)s1)CCC2 (single isomer, unassigned) [Example 213, (S) or (R)-N-(amino(2-(2-hydroxypropan-2-yl)thiazol-5-yl)(oxo)-λ^6-sulfaneylidene)-2-(4,6-diisopropyl-2,3-dihydro-1H-inden-5-yl)acetamide]	1 to 5 µM	–	–
CC(C)c1cc2c(c(C(C)C)c1CC(=O)N=S(N)(=O)c1ccn(C(C)C)n1)COC2 (single isomer, unassigned) [Example 218, (R) or (S)-N-(amino(1-isopropyl-1H-pyrazol-3-yl)(oxo)-λ^6-sulfaneylidene)-2-(4,6-diisopropyl-1,3-dihydroisobenzofuran-5-yl)acetamide]	5 to 30 µM	–	–
CC(C)c1cc2c(c(C(C)C)c1CC(=O)N=S(N)(=O)c1ccn(C(C)C)n1)COC2 (single isomer, unassigned) [Example 219, (S) or (R)-N-(amino(1-isopropyl-1H-pyrazol-3-yl)(oxo)-λ^6-sulfaneylidene)-2-(4,6-diisopropyl-1,3-dihydroisobenzofuran-5-yl)acetamide]	–	> 30 µM	–
CC(C)c1cc(F)cc(C(C)C)c1CC(=O)N=S(N)(=O)c1ccc(C(C)(C)O)cc1 (stereo not drawn) [Compound 131]	–	–	IC50 [3]: 5 to 30 µM
CC(C)(O)c1ncc(S(N)(=O)=NC(=O)Cc2cc3c(c4c2CCC4)CCC3)s1 (stereo not drawn) [Compound 259]	–	> 17 µM	–
CC(C)(O)c1ncc([S@@](N)(=O)=NC(=O)Cc2cc3c(c4c2CCC4)CCC3)s1 [Compound 259a]	5 to 30 µM	–	–
CC(C)(O)c1ncc([S@](N)(=O)=NC(=O)Cc2cc3c(c4c2CCC4)CCC3)s1 [Compound 259b]	–	> 30 µM	–
CC(C)(O)c1ncc([S@@](N)(=O)=NC(=O)Cn2c3ccccc3c3ccccc32)s1 [Compound 262a]	–	> 30 µM	–
CC(C)(O)c1ncc([S@](N)(=O)=NC(=O)Cn2c3ccccc3c3ccccc32)s1 [Compound 262b]	5 to 30 µM	–	–
CC(C)(O)c1cnc(S(N)(=O)=NC(=O)Cc2c3c(cc4c2CCC4)CCC3)s1 (stereo not drawn) [Example 4, 2-(1,2,3,5,6,7-Hexahydro-s-indacen-4-yl)-N-(5-(2-hydroxypropan-2-yl)thiazol-2-ylsulfonimidoyl)acetamide]	5 to 30 µM	–	–
CC(C)c1cc(F)cc(C(C)C)c1CC(=O)N=S(N)(=O)c1ncc(C(C)(C)O)s1 (stereo not drawn) [Example 7, 2-(4-Fluoro-2,6-diisopropylphenyl)-N-(5-(2-hydroxypropan-2-yl)thiazole-2-sulfonimidoyl)acetamide]	0.2 to 1 µM	–	–
CC(C)c1cc(F)cc(C(C)C)c1CC(=O)N=S(=O)(NC(=O)Cc1c(C(C)C)cc(F)cc1C(C)C)c1ncc(C(C)(C)O)s1 (stereo not drawn) [Example 10, N,N-(5-(2-hydroxypropan-2-yl)thiazol-2-ylsulfinyl)bis(2-(4-fluoro-2,6-diisopropylphenyl)acetamide)]	5 to 30 µM	–	–
CNS(=O)(=NC(=O)Cc1c(C(C)C)cc(F)cc1C(C)C)c1ncc(C(C)(C)O)s1 (stereo not drawn) [Example 11, 2-(4-Fluoro-2,6-diisopropylphenyl)-N-(5-(2-hydroxypropan-2-yl)-N-methylthiazole-2-sulfonimidoyl)acetamide]	5 to 30 µM	–	–
